Measurements published in publication PMC4460250, “Systems Pharmacology Dissecting Holistic Medicine for Treatment of Complex Diseases: An Example Using Cardiocerebrovascular Diseases Treated by TCM” (Evidence-based Complementary and Alternative Medicine : eCAM, 2015).

How the values were obtained:
[1] = human; PreHIA data set, value given as fraction; cited from earlier work
[2] = Human intestinal absorption percentage values of the PreHIA data set (732 compounds, Table S2); settings: class from HIA value

Class(High: HIA value ≥0.7; Low: HIA value < 0.7) [2] | Structure (SMILES) | HIA(Human Intestinal Absorption) [1]
High (High: HIA value ≥0.7) | CCN(CC)CCOC(=O)C1(C2CCCCC2)CCCCC1 [Dicyclomine] | 1
High (High: HIA value ≥0.7) | O=C1CC2(CCCC2)CC(=O)N1CCCCN1CCN(c2ncccn2)CC1 [Buspirone] | 1
Low (Low: HIA value < 0.7) | CCCC[N+]1(C)[C@@H]2C[C@@H](OC(=O)[C@H](CO)c3ccccc3)C[C@H]1[C@@H]1O[C@@H]12 (stereo partly drawn) [Butylscopolamine] | 0.1
Low (Low: HIA value < 0.7) | O=C(O)[C@H](CCc1ccccc1)N[C@H]1CCCN2CCC[C@@H](C(=O)O)N2C1=O [Cilazaprilat] | 0.2
High (High: HIA value ≥0.7) | CC(C(=O)O)c1ccc(C2CCCC(=NO)C2)cc1 (stereo not drawn) [Ximoprofen] | 0.98
High (High: HIA value ≥0.7) | CN1[C@@H]2CC[C@H]1C[C@@H](OC(=O)c1c[nH]c3ccccc13)C2 [Tropisetron] | 0.95
High (High: HIA value ≥0.7) | CCOC(=O)N1CCC(=C2c3ccc(Cl)cc3CCc3cccnc32)CC1 [Loratadine] | 

The next lines start with the molecule.

Structure (SMILES) | Class(High: HIA value ≥0.7; Low: HIA value < 0.7) [2] | HIA(Human Intestinal Absorption) [1]
C[C@@H]1CC(=O)NN=C1c1ccc(NN=C(C#N)C#N)cc1 [Levosimendan] | High (High: HIA value ≥0.7) | 0.9
O=c1n(CCCN2CCN(c3cccc(Cl)c3)CC2)nc2ccccn12 [Trazodone] | High (High: HIA value ≥0.7) | 1
CC[N+]1(C)[C@@H]2CC(OC(=O)[C@H](CO)c3ccccc3)C[C@H]1[C@@H]1O[C@@H]12 (stereo partly drawn) [Oxitropium] | Low (Low: HIA value < 0.7) | 0.16
O=CN(O)CCCP(=O)(O)O [Fosmidomycin] | Low (Low: HIA value < 0.7) | 0.3
CN(C(=O)C(Cl)Cl)c1ccc(O)cc1 [Diloxanide] | High (High: HIA value ≥0.7) | 0.9
CC(C)=CCC1C(=O)N(c2ccccc2)N(c2ccccc2)C1=O [Feprazone] | High (High: HIA value ≥0.7) | 0.9
CC(=O)Nc1ccc(OC(=O)c2ccccc2OC(C)=O)cc1 [Benorylate] | High (High: HIA value ≥0.7) | 1
O=[N+]([O-])c1ccc(O)c2ncccc12 [Nitroxoline] | High (High: HIA value ≥0.7) | 1
COc1ccc2c(C(=S)N(C)CC(=O)O)cccc2c1C(F)(F)F [Tolrestat] | Low (Low: HIA value < 0.7) | 0.66
C[C@@H]1O[C@@H](O[C@H]2C[C@@H](O)[C@]3(CO)[C@H]4[C@H](O)C[C@]5(C)[C@@H](C6=CC(=O)OC6)CC[C@]5(O)[C@@H]4CC[C@]3(O)C2)[C@H](O)[C@H](O)[C@H]1O [Ouabain] | Low (Low: HIA value < 0.7) | 
COc1ccnc(C[S+]([O-])c2nc3ccc(OC(F)F)cc3[nH]2)c1OC (stereo not drawn) [Pantoprazole] | High (High: HIA value ≥0.7) | 0.77
CC1(C)O[C@@H]2C[C@H]3[C@@H]4CCC5=CC(=O)C=C[C@]5(C)[C@@]4(F)[C@@H](O)C[C@]3(C)[C@]2(C(=O)CO)O1 [Triamcinolone_acetonide] | High (High: HIA value ≥0.7) | 0.9
NC(=O)OCC(COC(N)=O)c1ccccc1 [Felbamate] | High (High: HIA value ≥0.7) | 0.9
CC1(C)S[C@@H]2[C@H](NC(=O)[C@H](N)c3ccc(O)cc3)C(=O)N2[C@H]1C(=O)O [Amoxicillin] | High (High: HIA value ≥0.7) | 
